Data: ChEMBL document CHEMBL1201862, “PubChem BioAssay data set” (2004)
Several values for one entry are separate records, joined by “and”; a condition that tells them apart may be missing. Identical values can stand only once.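 Protocol summary: plate cells (96-well), add compound at 5 concentrations, incubate 48 h, interpolate endpoints linearly. Abbreviation: GI50, concentration required for 50% inhibition of growth.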 Activity calls are given as the source filed them. Cut-off read from the data, not from the text of the source: active = GI50 up to about 1.1 µM and inactive = higher.

Key:
Assay in all cases: NCI anticancer screen, dose series, 48 h
[1] = tested on: IGROV-1
[2] = tested on: OVCAR-5
[3] = tested on: LOX IMVI
[4] = tested on: XF498
[5] = tested on: UACC-62
[6] = tested on: CAKI-1
[7] = tested on: M19-MEL
[8] = tested on: SF-295
[9] = tested on: Malme-3M
[10] = tested on: SK-OV-3
[11] = tested on: RXF 631
[12] = tested on: KM12
[13] = tested on: SNB-78
[14] = tested on: A549
[15] = tested on: DMS-114
[16] = tested on: NCI-H23
[17] = tested on: ACHN
[18] = tested on: SN12C
[19] = tested on: HCC 2998
[20] = tested on: SNB-19
[21] = tested on: HT-29
[22] = tested on: U-251
[23] = tested on: SW-620
[24] = tested on: HL-60
[25] = tested on: SR
[26] = tested on: SF-268
[27] = tested on: NCI-H522
[28] = tested on: HOP-62
[29] = tested on: SK-MEL-5
[30] = tested on: TK-10
[31] = tested on: DMS-273
[32] = tested on: SNB-75
[33] = tested on: LXFL 529
[34] = tested on: EKVX
[35] = tested on: SK-MEL-28
[36] = tested on: NCI-H226
[37] = tested on: A498
[38] = tested on: SK-MEL-2
[39] = tested on: 786-0
[40] = tested on: HCT-15
[41] = tested on: OVCAR-8
[42] = tested on: HCT-116
[43] = tested on: COLO 205
[44] = tested on: NCI-H460
[45] = tested on: DLD-1
[46] = tested on: M14
[47] = tested on: KM-20L2
[48] = tested on: MOLT-4
[49] = tested on: HOP-92
[50] = tested on: K562
[51] = tested on: SF-539
[52] = tested on: CCRF-CEM
[53] = tested on: UO-31
[54] = tested on: UACC-257
[55] = tested on: RPMI-8226
[56] = tested on: RXF 393
[57] = tested on: OVCAR-3
[58] = tested on: HOP-18
[59] = tested on: OVCAR-4

SMILES: CN(C(=O)C12C3C4C1C1C4(C(=O)C45C6C7C4C4C5C6C74C)C3C12C)C(C)(C)C (configuration not stated)
- GI50 [1]: > 100 µM (inactive)
- GI50 [2]: 88.1 µM (inactive)
- GI50 [3]: 48.1 µM (inactive)
- GI50 [4]: 49 µM (inactive)
- GI50 [5]: 48.3 µM (inactive)
- GI50 [6]: > 100 µM (inactive)
- GI50 [7]: 45.9 µM (inactive)
- GI50 [8]: > 100 µM (inactive)
- GI50 [9]: > 100 µM (inactive)
- GI50 [10]: 90.4 µM (inactive)
- GI50 [11]: 34.6 µM (inactive)
- GI50 [12]: 78.7 µM (inactive)
- GI50 [13]: 78.3 µM (inactive)
- GI50 [14]: 52.7 µM (inactive)
- GI50 [15]: 39.8 µM (inactive)
- GI50 [16]: 70.5 µM (inactive)
- GI50 [17]: 74.3 µM (inactive)
- GI50 [18]: > 100 µM (inactive)
- GI50 [19]: 91 µM (inactive)
- GI50 [20]: 69.5 µM (inactive)
- GI50 [21]: 17.5 µM (inactive)
- GI50 [22]: 79.3 µM (inactive)
- GI50 [23]: > 100 µM (inactive)
- GI50 [24]: 14.8 µM (inactive)
- GI50 [25]: 29.2 µM (inactive)
- GI50 [26]: > 100 µM (inactive)
- GI50 [27]: 48.6 µM (inactive)
- GI50 [28]: > 100 µM (inactive)
- GI50 [29]: 31.6 µM (inactive)
- GI50 [30]: > 100 µM (inactive)
- GI50 [31]: 53.6 µM (inactive)
- GI50 [32]: > 100 µM (inactive)
- GI50 [33]: 37.8 µM (inactive)
- GI50 [34]: > 100 µM (inactive)
- GI50 [35]: > 100 µM (inactive)
- GI50 [36]: 72.3 µM (inactive)
- GI50 [37]: 55.3 µM (inactive)
- GI50 [38]: > 100 µM (inactive)
- GI50 [39]: 67.9 µM (inactive)
- GI50 [40]: 28.3 µM
- GI50 [41]: > 100 µM (inactive)
- GI50 [42]: 52.7 µM (inactive)
- GI50 [43]: 35.4 µM (inactive)
- GI50 [44]: 54.6 µM (inactive)
- GI50 [45]: 56.5 µM (inactive)
- GI50 [46]: > 100 µM (inactive)
- GI50 [47]: 31.2 µM (inactive)
- GI50 [48]: 40.3 µM (inactive)
- GI50 [49]: 28.6 µM (inactive)
- GI50 [50]: 26.4 µM (inactive)
- GI50 [51]: > 100 µM (inactive)
- GI50 [52]: 32.1 µM (inactive)
- GI50 [53]: 38.5 µM (inactive)
- GI50 [54]: 32.5 µM (inactive)

SMILES: COc1ccc2c(CN3CCCCC3CO)cc3cc(OC)c(OC)cc3c2c1 (configuration not stated)
- GI50 [55]: 3.48 µM (inactive)
- GI50 [1]: 13.2 µM (inactive)
- GI50 [2]: 3.1 µM (inactive)
- GI50 [3]: 3.32 µM (inactive)
- GI50 [4]: 5.36 µM (inactive)
- GI50 [56]: 6.65 µM (inactive)
- GI50 [5]: 10.4 µM (inactive)
- GI50 [7]: 3.3 µM (inactive)
- GI50 [8]: 3.02 µM (inactive)
- GI50 [9]: 4.63 µM (inactive)
- GI50 [10]: 14.6 µM (inactive)
- GI50 [12]: 4.35 µM (inactive)
- GI50 [13]: 6.93 µM (inactive)
- GI50 [14]: 3.97 µM (inactive)
- GI50 [15]: 3.49 µM (inactive)
- GI50 [16]: 3.81 µM (inactive)
- GI50 [17]: 3.5 µM (inactive)
- GI50 [18]: 6.25 µM (inactive)
- GI50 [19]: 7.59 µM (inactive)
- GI50 [20]: 4.04 µM (inactive)
- GI50 [21]: 2.43 µM (inactive)
- GI50 [22]: 5.85 µM (inactive)
- GI50 [23]: 3.88 µM (inactive)
- GI50 [24]: 3.38 µM (inactive)
- GI50 [57]: 5.57 µM (inactive)
- GI50 [25]: 3.72 µM (inactive)
- GI50 [26]: 6.28 µM (inactive)
- GI50 [27]: 2.52 µM (inactive)
- GI50 [28]: 6.43 µM (inactive)
- GI50 [29]: 7.5 µM (inactive)
- GI50 [30]: 4.7 µM (inactive)
- GI50 [31]: 2.65 µM (inactive)
- GI50 [32]: 8.53 µM (inactive)
- GI50 [58]: 13.7 µM (inactive)
- GI50 [33]: 4.9 µM (inactive)
- GI50 [34]: 6.41 µM (inactive)
- GI50 [35]: 6.32 µM (inactive)
- GI50 [36]: 4.32 µM (inactive)
- GI50 [37]: 3.59 µM (inactive)
- GI50 [38]: 4.17 µM (inactive)
- GI50 [39]: 4.8 µM (inactive)
- GI50 [40]: 4.38 µM
- GI50 [41]: 4.42 µM (inactive)
- GI50 [42]: 1.75 µM (inactive)
- GI50 [43]: 2.58 µM (inactive)
- GI50 [45]: 6.18 µM (inactive)
- GI50 [46]: 4.74 µM (inactive)
- GI50 [47]: 3.64 µM (inactive)
- GI50 [48]: 2.82 µM (inactive)
- GI50 [49]: 2.1 µM (inactive)
- GI50 [50]: 2.59 µM (inactive)
- GI50 [51]: 4.02 µM (inactive)
- GI50 [52]: 3.56 µM (inactive)
- GI50 [53]: 2.87 µM (inactive)
- GI50 [54]: 3.82 µM (inactive)

SMILES: Cc1cc(Cl)cc2c1NC(=O)C2(O)C(C(=O)c1ccccc1)c1ccccc1 (configuration not stated)
- GI50 [55]: 17.4 µM (inactive) and 22.9 µM (inactive)
- GI50 [1]: 26.2 µM (inactive)
- GI50 [2]: > 100 µM (inactive)
- GI50 [3]: 19.3 µM (inactive) and 33 µM (inactive)
- GI50 [4]: 36.4 µM (inactive) and 28.7 µM (inactive)
- GI50 [5]: 17.3 µM (inactive)
- GI50 [7]: 3.4 µM (inactive)
- GI50 [8]: 45.7 µM (inactive) and 67.8 µM (inactive)
- GI50 [10]: 56.6 µM (inactive)
- GI50 [11]: 37.8 µM (inactive) and 70.1 µM (inactive)
- GI50 [12]: 47.6 µM (inactive) and 60.4 µM (inactive)
- GI50 [13]: 41.8 µM (inactive) and 56.6 µM (inactive)
- GI50 [15]: 22.9 µM (inactive) and 25.6 µM (inactive)
- GI50 [16]: 52.5 µM (inactive) and 38.6 µM (inactive)
- GI50 [19]: 23.9 µM (inactive) and 29.9 µM (inactive)
- GI50 [20]: 77.6 µM (inactive)
- GI50 [21]: 35.2 µM (inactive) and 39.8 µM (inactive)
- GI50 [23]: 44.7 µM (inactive) and 76 µM (inactive)
- GI50 [24]: 20.1 µM (inactive)
- GI50 [27]: 36.5 µM (inactive)
- GI50 [28]: 82 µM (inactive) and 47.3 µM (inactive)
- GI50 [29]: 21.2 µM (inactive)
- GI50 [59]: 20.4 µM (inactive) and 35.5 µM (inactive)
- GI50 [30]: > 100 µM (inactive) and 84.7 µM (inactive)
- GI50 [31]: 55.8 µM (inactive)
- GI50 [32]: 24.7 µM (inactive) and 21.7 µM (inactive)
- GI50 [34]: 49.8 µM (inactive) and 67.8 µM (inactive)
- GI50 [36]: 36.4 µM (inactive) and 27.3 µM (inactive)
- GI50 [37]: 27.7 µM (inactive)
- GI50 [38]: 44.8 µM (inactive) and 32.3 µM (inactive)
- GI50 [40]: 71.3 µM and 46.7 µM
- GI50 [42]: 23.4 µM (inactive)
- GI50 [45]: 53.8 µM (inactive) and 42.3 µM (inactive)
- GI50 [47]: 88.9 µM (inactive)
- GI50 [48]: 16 µM (inactive)
- GI50 [50]: 33.5 µM (inactive)
- GI50 [51]: 21 µM (inactive)
- GI50 [52]: 26.7 µM (inactive)
